The source of these data is patent US20240293507A1, “Methods for Enhancing Immune Checkpoint Inhibitor Therapy” (The University of Southern California, priority 2021, published 2024).

No end group written: not given here.

The subject of assay [1] is myeloid-derived suppressor cells (MDSCs) in MC38 colon adenocarcinoma tumors. In words: MDSC infiltration into tumor microenvironment, MC38 tumors, FACS. In kind it is in vivo, C57BL/6 mice. The following applies: 4 doses cyclic peptide 0.1 mg/kg alone; tumors harvested day 13. How it is done:
C57BL/6 mice were implanted subcutaneously with 5×10^6 MC38 colon adenocarcinoma cells, and subsequently treated with 4 doses of the indicated cyclic peptide (0.1 mg/kg), 4 doses of the indicated a cyclic peptide with 3 doses of an anti-PD-1 monoclonal antibody (1 mg/kg), or saline (control). Tumors were harvested at day 13 and the percent of myeloid-derived suppressor cells (MDSCs) was quantified by FACS.

In assay [2] the test system is MC38 mouse colon adenocarcinoma cells. In words: MC38 colon adenocarcinoma challenge, survival and rechallenge (FIG. 6-8). In kind it is in vivo, mice. The conditions noted are these: peptide in combination with anti-PD-1 monoclonal antibody. From the text: Enhancement was also found of the efficacy of anti-PD-1 therapy in a mouse colon cancer model by coadministration of a cyclic peptide as described herein. A typical protocol for identifying or characterizing effective analogs of naturally occurring cyclic peptides or effective naturally occurring cyclic peptides is shown in FIG. 6.
Mice were challenged with MC38 mouse colon adenocarcinoma cells and treated with peptide 1 (SEQ ID NO. 1), peptide 2 (SEQ ID NO. 2), or peptide 3 (SEQ ID NO. 3) alone, peptide 1 (SEQ ID NO. 1), peptide 2 (SEQ ID NO. 2), or peptide 3 (SEQ ID NO. 3) in combination with an anti-PD-1 monoclonal antibody, or with the anti-PD-1 monoclonal antibody alone.
Such combination therapy provided an effect that exceeds the summation of effects provided by anti-PD1 or the cyclic peptide as monotherapies. […] Use of cyclic peptides in combination anti-PD-1 ICI also effectively immunized mice to rechallenge with MC38 colon cancer cells. As shown in the upper panel of FIG. 8, MC38 cells formed tumors in naïve control mice.

As to “peptide 3: cyclic peptide, θ-defensin analog, sequence CICRRRFCLCRRGA (not fully specified (bridges); also: cyclic, kind not given here)”, the “percentage of MDSCs within the tumor microenvironment” value in assay [1] was “significant activity in reducing the percentage of MDSCs”. Moreover, the survival entry in assay [2] is listed as “potentiated the effect of the anti-PD-1 monoclonal antibody”.
